Measured values: US20240269139A1, “COMPOUNDS FOR TARGETED PROTEIN DEGRADATION OF KINASES” (DANA-FARBER CANCER INSTITUTE, INC., priority 2020, published 2024)
Several values for one entry are separate records, joined by “and”; a condition that tells them apart may be missing. Identical values can stand only once. Like-named read-outs stand apart in the source and are kept apart here.

Assays:
Format in all cases: cell-based
[1] = biological target: protein kinases (human kinome) (Homo sapiens, UniProt P30291); conditions: for logFC of WEE1: WEE1 P30291-1
[2] = biological target: T1, protein kinases (human kinome) (Homo sapiens, UniProt O75385); conditions: for logFC: ULK1 (O75385) protein abundance, degrader vs DMSO, down; for logFC ULK1: ULK1 O75385
T1 sequence (O75385 1-1050): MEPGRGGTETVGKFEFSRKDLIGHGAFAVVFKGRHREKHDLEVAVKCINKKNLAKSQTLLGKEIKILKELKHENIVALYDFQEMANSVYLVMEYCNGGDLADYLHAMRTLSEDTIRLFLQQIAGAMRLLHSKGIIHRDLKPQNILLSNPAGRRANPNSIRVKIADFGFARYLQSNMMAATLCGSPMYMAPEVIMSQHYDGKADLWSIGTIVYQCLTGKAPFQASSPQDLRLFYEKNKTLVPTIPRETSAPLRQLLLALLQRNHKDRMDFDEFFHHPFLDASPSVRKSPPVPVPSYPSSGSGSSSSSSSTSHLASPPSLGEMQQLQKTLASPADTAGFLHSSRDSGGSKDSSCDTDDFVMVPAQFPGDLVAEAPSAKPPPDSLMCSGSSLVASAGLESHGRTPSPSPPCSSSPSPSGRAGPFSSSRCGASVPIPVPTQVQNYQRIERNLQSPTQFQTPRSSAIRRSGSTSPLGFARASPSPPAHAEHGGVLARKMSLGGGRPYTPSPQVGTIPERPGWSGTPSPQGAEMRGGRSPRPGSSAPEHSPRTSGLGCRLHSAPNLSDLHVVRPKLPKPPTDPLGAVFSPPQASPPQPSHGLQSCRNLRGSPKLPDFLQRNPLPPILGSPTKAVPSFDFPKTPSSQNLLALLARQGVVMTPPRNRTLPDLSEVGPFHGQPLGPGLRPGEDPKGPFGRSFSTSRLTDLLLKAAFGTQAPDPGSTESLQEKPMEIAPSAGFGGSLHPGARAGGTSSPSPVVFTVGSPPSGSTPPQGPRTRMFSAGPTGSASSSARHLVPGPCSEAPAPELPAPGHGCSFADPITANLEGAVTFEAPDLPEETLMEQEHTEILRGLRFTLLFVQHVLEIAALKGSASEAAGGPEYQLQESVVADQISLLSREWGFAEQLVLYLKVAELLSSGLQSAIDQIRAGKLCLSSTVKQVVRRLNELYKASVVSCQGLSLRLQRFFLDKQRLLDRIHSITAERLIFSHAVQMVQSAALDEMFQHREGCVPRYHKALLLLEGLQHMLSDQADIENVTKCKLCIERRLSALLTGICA

[3] = biological target: protein kinases (human kinome) (Homo sapiens, UniProt Q00534); conditions: for logFC CDK6: CDK6 (Q00534), direction down; for logFC of CDK6 (Q00534): down
[4] = biological target: protein kinases (human kinome) (Homo sapiens, UniProt P51451); conditions: for logFC BLK: BLK (P51451), direction down; for logFC of BLK: BLK P51451; for logFC of BLK (P51451): down
[5] = experiment wp076, degrader vs DMSO

Chain of protein kinases (human kinome) (Homo sapiens, UniProt P30291) (P30291 whole entry): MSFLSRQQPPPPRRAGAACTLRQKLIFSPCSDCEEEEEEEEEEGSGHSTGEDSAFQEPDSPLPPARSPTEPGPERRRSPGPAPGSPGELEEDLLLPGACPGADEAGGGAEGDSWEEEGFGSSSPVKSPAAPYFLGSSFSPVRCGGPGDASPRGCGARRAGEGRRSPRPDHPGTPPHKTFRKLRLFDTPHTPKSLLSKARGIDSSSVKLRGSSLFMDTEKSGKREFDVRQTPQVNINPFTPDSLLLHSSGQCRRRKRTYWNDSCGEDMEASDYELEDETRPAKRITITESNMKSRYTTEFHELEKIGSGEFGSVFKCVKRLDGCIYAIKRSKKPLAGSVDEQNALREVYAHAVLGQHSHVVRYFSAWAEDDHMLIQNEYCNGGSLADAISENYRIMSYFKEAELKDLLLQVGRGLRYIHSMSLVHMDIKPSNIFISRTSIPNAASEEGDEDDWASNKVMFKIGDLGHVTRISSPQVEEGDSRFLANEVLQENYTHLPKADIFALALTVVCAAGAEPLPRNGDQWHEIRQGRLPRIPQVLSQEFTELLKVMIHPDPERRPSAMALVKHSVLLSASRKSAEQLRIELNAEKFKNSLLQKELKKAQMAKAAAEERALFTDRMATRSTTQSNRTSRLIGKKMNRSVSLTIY
Chain of protein kinases (human kinome) (Homo sapiens, UniProt P51451) (P51451 whole entry): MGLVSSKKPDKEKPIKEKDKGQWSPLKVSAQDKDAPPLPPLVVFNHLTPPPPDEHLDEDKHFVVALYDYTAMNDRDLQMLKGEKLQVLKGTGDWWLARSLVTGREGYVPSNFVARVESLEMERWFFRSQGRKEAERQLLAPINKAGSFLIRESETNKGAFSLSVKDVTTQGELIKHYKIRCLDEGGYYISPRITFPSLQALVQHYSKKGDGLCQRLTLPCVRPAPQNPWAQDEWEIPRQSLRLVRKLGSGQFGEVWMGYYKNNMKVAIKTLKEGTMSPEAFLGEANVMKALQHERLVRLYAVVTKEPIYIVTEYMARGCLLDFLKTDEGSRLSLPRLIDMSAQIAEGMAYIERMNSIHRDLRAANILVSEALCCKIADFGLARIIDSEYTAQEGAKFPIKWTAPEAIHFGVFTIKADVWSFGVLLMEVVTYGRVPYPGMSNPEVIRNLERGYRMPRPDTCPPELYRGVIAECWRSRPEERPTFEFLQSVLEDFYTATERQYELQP
Chain of protein kinases (human kinome) (Homo sapiens, UniProt Q00534) (Q00534 whole entry): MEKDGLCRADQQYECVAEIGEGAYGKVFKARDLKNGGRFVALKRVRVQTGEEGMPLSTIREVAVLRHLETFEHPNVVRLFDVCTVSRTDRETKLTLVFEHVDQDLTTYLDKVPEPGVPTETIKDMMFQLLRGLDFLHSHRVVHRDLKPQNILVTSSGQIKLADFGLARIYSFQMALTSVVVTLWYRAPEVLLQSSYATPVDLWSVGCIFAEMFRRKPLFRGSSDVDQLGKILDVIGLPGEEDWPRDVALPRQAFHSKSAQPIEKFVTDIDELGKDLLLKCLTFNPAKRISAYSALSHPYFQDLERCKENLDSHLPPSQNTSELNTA

O=C(COc1cccc2c1C(=O)N(C1CCC(=O)NC1=O)C2=O)NCCCCCCCN1CCc2cc(Nc3ncc(C4CC4)c(NCCCNC(=O)C4CCC4)n3)ccc2C1 (stereo not shown) [BSJ.04.178]
logFC of WEE1 ([1]; experiment wp134): −0.5688
logFC WEE1 (P30291-1) ([1]; experiment wp134): −0.5688
logFC [2]: −1.683
logFC ULK1 ([2]; experiment wp134): −1.683

Cc1ncsc1-c1ccc([C@H](C)NC(=O)[C@@H]2C[C@@H](O)CN2C(=O)[C@@H](NC(=O)CCCCCN2CCc3cc(Nc4ncc(C5CC5)c(NCCCNC(=O)C5CCC5)n4)ccc3C2)C(C)(C)C)cc1 [BSJ.05.026]
logFC WEE1 (P30291-1) ([1]; Experiment wp195): −0.8876
logFC of WEE1 ([1]; experiment wp196): −0.8876
logFC [2]: −0.4424
logFC ULK1 ([2]; experiment wp195): −0.4424

CS(=O)(=O)Nc1cccc(-c2csc3cnc(Nc4ccc(N5CCN(CCCCCOc6cccc7c6C(=O)N(C6CCC(=O)NC6=O)C7=O)CC5)cc4)nc23)c1 (stereo not shown) [DB0614, N-(3-(2-((4-(4-(5-((2-(2,6-Dioxopiperidin-3-yl)-1,3-dioxoisoindolin-4-yl)oxy)pentyl)piperazin-1-yl)phenyl)amino)thieno[3,2-d]pyrimidin-7-yl)phenyl)methanesulfonamide]
logFC of WEE1 ([1]; experiment wp117): −1.777
logFC WEE1 (P30291-1) ([1]; experiment wp045): −1.876
logFC WEE1 (P30291-1) ([1]; experiment wp117): −1.777
logFC CDK6 ([3]; experiment wp045): −2.265
logFC CDK6 ([3]; experiment wp117): −2.079
logFC of CDK6 (Q00534) ([3]; Experiment wp045): −2.265
logFC of CDK6 (Q00534) ([3]; Experiment wp117): −2.079
logFC [2]: −0.869 and −1.105
logFC ULK1 ([2]; experiment wp045): −0.869
logFC ULK1 ([2]; experiment wp117): −1.105

Cc1ccc(NC(=O)c2cccc(C(F)(F)F)c2)cc1N1Cc2cnc(Nc3ccc(N4CCN(Cc5cn(CCCCCOc6cccc7c6C(=O)N(C6CCC(=O)NC6=O)C7=O)nn5)CC4)nc3)nc2N(C)C1=O (stereo not shown) [DB0646, N-(3-(7-((6-(4-((1-(5-((2-(2,6-Dioxopiperidin-3-yl)-1,3-dioxoisoindolin-4-yl)oxy)pentyl)-1H-1,2,3-triazol-4-yl)methyl)piperazin-1-v)pyridin-3-yl)amino)-1-methyl-2-oxo-1,4-dihydropyrimido[4,5-d]pyrimidin-3(2H)-yl)-4-methylphenyl)-3-(trifluoromethyl)benzamide]
logFC of WEE1 ([1]; experiment wp160, 8 hr): −0.352
logFC WEE1 (P30291-1) ([1]; experiment wp160, 8 hr): −0.352
logFC BLK ([4]; experiment wp103): −1.19
logFC BLK ([4]; experiment wp107): −1.259
logFC BLK ([4]; experiment wp117): −1.275
logFC BLK ([4]; experiment wp152): −1.511
logFC BLK ([4]; experiment wp160, 2 hr): −0.5315
logFC BLK ([4]; experiment wp160, 4 hr): −1.092
logFC BLK ([4]; experiment wp160, 8 hr): −1.434
logFC of BLK ([4]; experiment wp045): −1.314
logFC of BLK (P51451) ([4]; Experiment wp045): −1.314
logFC of BLK (P51451) ([4]; Experiment wp103): −1.19
logFC of BLK (P51451) ([4]; Experiment wp107): −1.259
logFC of BLK (P51451) ([4]; Experiment wp117): −1.275
logFC of BLK (P51451) ([4]; Experiment wp152): −1.511
logFC of BLK (P51451) ([4]; Experiment wp160, 2 hr): −0.5315
logFC of BLK (P51451) ([4]; Experiment wp160, 4 hr): −1.092
logFC of BLK (P51451) ([4]; Experiment wp160, 8 hr): −1.434
logFC ([2]; 4 hr): −0.3412
logFC ([2]; 8 hr): −0.3989
logFC ULK1 ([2]; experiment wp160, 4 hr): −0.3412
logFC ULK1 ([2]; experiment wp160, 8 hr): −0.3989

Cc1ccc(NC(=O)c2cccc(C(F)(F)F)c2)cc1N1Cc2cnc(Nc3ccc(N4CCN(CCCOc5cccc6c5C(=O)N(C5CCC(=O)NC5=O)C6=O)CC4)nc3)nc2N(C)C1=O (stereo not shown) [DB0662]
logFC BLK ([4]; experiment wp168): −1.652
logFC of BLK (P51451) ([4]; Experiment wp168): −1.652
logFC [2]: −0.3582
logFC ULK1 ([2]; experiment wp168): −0.3582

Cc1ccc(NC(=O)c2cccc(C(F)(F)F)c2)cc1N1Cc2cnc(Nc3ccc(N4CCN(CCCCCCOc5cccc6c5C(=O)N(C5CCC(=O)NC5=O)C6=O)CC4)nc3)nc2N(C)C1=O (stereo not shown) [DB0663]
logFC of BLK ([4]; experiment wp045): −1.058
logFC of BLK (P51451) ([4]; Experiment wp045): −1.058

Cc1ccc(NC(=O)c2cccc(C(F)(F)F)c2)cc1N1Cc2cnc(Nc3ccc(N4CCN(CCCCC(=O)N[C@H](C(=O)N5C[C@H](O)C[C@H]5C(=O)N[C@@H](C)c5ccc(-c6scnc6C)cc5)C(C)(C)C)CC4)nc3)nc2N(C)C1=O [DB1113]
logFC BLK ([4]; experiment wp168): −1.32
logFC of BLK (P51451) ([4]; Experiment wp168): −1.32
logFC [2]: −0.352
logFC ULK1 ([2]; experiment wp168): −0.352

Cc1ncsc1-c1ccc([C@H](C)NC(=O)[C@@H]2C[C@@H](O)CN2C(=O)[C@@H](NC(=O)CCOCCOCCN2CCN(c3ccc(Nc4ncc(Cl)c(Nc5ccccc5S(=O)(=O)C(C)C)n4)cc3)CC2)C(C)(C)C)cc1 [FMF.06.098.1]
logFC WEE1 (P30291-1) ([1]; Experiment wp108): −1.98
logFC of WEE1 ([1]; experiment wp108): −1.98
logFC of WEE1 ([1]; experiment wp131): −2.183
logFC WEE1 (P30291-1) ([1]; experiment wp131): −2.183
logFC CDK6 ([3]; experiment wp108): −0.3588
logFC CDK6 ([3]; experiment wp131): −0.5377
logFC of CDK6 (Q00534) ([3]; Experiment wp108): −0.3588
logFC of CDK6 (Q00534) ([3]; Experiment wp131): −0.5377
logFC [2]: −0.688 and −0.9629
logFC ULK1 ([2]; experiment wp108): −0.688
logFC ULK1 ([2]; experiment wp131): −0.9629

Cc1cnc(Nc2ccc(N3CCN(CCCCCCC(=O)N[C@H](C(=O)N4C[C@H](O)C[C@H]4C(=O)N[C@@H](C)c4ccc(-c5scnc5C)cc4)C(C)(C)C)CC3)cc2)nc1Nc1cccc(S(=O)(=O)NC(C)(C)C)c1 [JWG.123]
logFC of WEE1 ([1]; experiment wp195): −1.368
logFC of WEE1 (P30291-1) ([1]; experiment wp195, direction of change down): −1.368

CNC(=O)c1ccccc1Nc1cc(Nc2ccc(N3CCN(CCOCCOCCNC(=O)CNc4cccc5c4C(=O)N(C4CCC(=O)NC4=O)C5=O)CC3)cc2OC)ncc1C(F)(F)F (stereo not shown) [MFH.5.103.1]
logFC WEE1 (P30291-1) ([1]; experiment wp076): −0.9694

CCc1cnn2c(N(Cc3ccc(N)nc3)C(=O)CCOCCOCCOCCNC(=O)CNc3cccc4c3C(=O)N(C3CCC(=O)NC3=O)C4=O)cc(N3CCCC[C@H]3CCO)nc12 (stereo partly shown) [MFH.5.115.2]
logFC of WEE1 [1, 5]: −0.7664
logFC WEE1 (P30291-1) ([1]; experiment wp076): −0.7664

O=C1CCC(N2C(=O)c3cccc(NCCCCCCCCN4CCC(NC(=O)c5[nH]ncc5NC(=O)c5c(Cl)cccc5Cl)CC4)c3C2=O)C(=O)N1 (stereo not shown) [MFH.5.126.1]
logFC of WEE1 [1, 5]: −0.9048
logFC WEE1 (P30291-1) ([1]; experiment wp076): −0.9048

Nc1ncnc2c1c(-c1ccc(Oc3ccccc3)cc1)nn2[C@H]1CC[C@H](N2CCN(CCOCCNC(=O)CNc3cccc4c3C(=O)N(C3CCC(=O)NC3=O)C4=O)CC2)CC1 (stereo partly shown) [SB1.G.181]
logFC of BLK ([4]; experiment wp071): −2.337
logFC of BLK (P51451) ([4]; Experiment wp071): −2.337

CC(C)S(=O)(=O)c1ccccc1Nc1nc(Nc2ccc(N3CCN(CCOCCNC(=O)CNc4ccc5c(c4)C(=O)N(C4CCC(=O)NC4=O)C5=O)CC3)cc2)ncc1Cl (stereo not shown) [SK.3.93]
logFC WEE1 (P30291-1) ([1]; experiment wp016): −1.176
logFC CDK6 ([3]; experiment wp016): −0.8585
logFC of CDK6 (Q00534) ([3]; Experiment wp016): −0.8585
logFC of BLK ([4]; experiment wp016): −1.502
logFC of BLK (P51451) ([4]; Experiment wp016): −1.502

Cc1ccc(C(=O)Nc2ccc(CN3CCN(CCOCCOCCNC(=O)CNc4cccc5c4C(=O)N(C4CCC(=O)NC4=O)C5=O)CC3)c(C(F)(F)F)c2)cc1C#Cc1cnc2cccnn12 (stereo not shown) [TL13.150]
logFC BLK ([4]; experiment wp081): −1.435
logFC of BLK (P51451) ([4]; Experiment wp081): −1.435

Cc1cc(Nc2ncc(Br)c(Nc3cccc(F)c3C(N)=O)n2)ccc1S(=O)(=O)NCCOCCOCCOCCOCCNc1cccc2c1C(=O)N(C1CCC(=O)NC1=O)C2=O (stereo not shown) [TMX.02.174]
logFC of WEE1 ([1]; experiment wp146): −1.142
logFC WEE1 (P30291-1) ([1]; experiment wp146): −1.142
